Results from the supplement of paper PMC10307832.

Columns and labels:
Test in all cases: relative viability (nuclei count vs DMSO), 5 days (fraction); higher = more cells survive
VX-702 + Alpelisib = compound: NC(=O)c1ccc(N(C(N)=O)c2c(F)cccc2F)nc1-c1ccc(F)cc1F [VX-702] + Cc1nc(NC(=O)N2CCC[C@H]2C(N)=O)sc1-c1ccnc(C(C)(C)C(F)(F)F)c1 [Alpelisib] (partner 2 µM)
How it was run: (§1)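 For relative viability, nuclei counts in treated wells were divided by those in vehicle wells. Lung cancer cell lines had been pin-tool dosed in 1536-well plates the day after seeding and cultured for 5 days, then fixed and stained in one step (final 0.05% Triton X-100, 1% formaldehyde, 1 ug/ml Hoechst) and imaged at 4×. Doses were one drug alone or a fixed anchor-drug dose plus five library-drug doses (not always all listed) in √10 steps, and values are duplicate-plate medians.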

Dabrafenib + Navitoclax = compound: CC(C)(C)c1nc(-c2cccc(NS(=O)(=O)c3c(F)cccc3F)c2F)c(-c2ccnc(N)n2)s1 [Dabrafenib] + CC1(C)CCC(c2ccc(Cl)cc2)=C(CN2CCN(c3ccc(C(=O)NS(=O)(=O)c4ccc(N[C@H](CCN5CCOCC5)CSc5ccccc5)c(S(=O)(=O)C(F)(F)F)c4)cc3)CC2)C1 [Navitoclax] (partner 0.5 µM)
How it was run: as §1

VX-702 + Luminespib = compound: NC(=O)c1ccc(N(C(N)=O)c2c(F)cccc2F)nc1-c1ccc(F)cc1F [VX-702] + CCNC(=O)c1noc(-c2cc(C(C)C)c(O)cc2O)c1-c1ccc(CN2CCOCC2)cc1 [Luminespib] (partner 0.01 µM)
How it was run: as §1

Dabrafenib + Phenformin = compound: CC(C)(C)c1nc(-c2cccc(NS(=O)(=O)c3c(F)cccc3F)c2F)c(-c2ccnc(N)n2)s1 [Dabrafenib] + N=C(N)NC(=N)NCCc1ccccc1 [Phenformin] (partner 250 µM)
How it was run: as §1

Cell Line: EBC-1
- relative viability (VX-702 + Alpelisib; first compound 0.02 µM): 0.777
- relative viability (VX-702 + Alpelisib; first compound 0.2 µM): 0.835
- relative viability (VX-702 + Alpelisib; first compound 0.6325 µM): 0.687
- relative viability (VX-702 + Alpelisib; first compound 2 µM): 0.892
- relative viability (Dabrafenib + Navitoclax; first compound 0.003 µM): 0.369
- relative viability (Dabrafenib + Navitoclax; first compound 0.009487 µM): 0.373
- relative viability (Dabrafenib + Navitoclax; first compound 0.03 µM): 0.32
- relative viability (Dabrafenib + Navitoclax; first compound 0.09487 µM): 0.145
- relative viability (Dabrafenib + Navitoclax; first compound 0.3 µM): 0.221

Cell Line: EKVX
- relative viability (VX-702 + Luminespib; first compound 0.02 µM): 0.899
- relative viability (VX-702 + Luminespib; first compound 0.2 µM): 0.822
- relative viability (VX-702 + Luminespib; first compound 0.6325 µM): 0.878
- relative viability (VX-702 + Luminespib; first compound 2 µM): 0.942
- relative viability (VX-702 + Alpelisib; first compound 0.02 µM): 0.814
- relative viability (VX-702 + Alpelisib; first compound 0.2 µM): 0.801
- relative viability (VX-702 + Alpelisib; first compound 0.6325 µM): 0.73
- relative viability (VX-702 + Alpelisib; first compound 2 µM): 0.855
- relative viability (Dabrafenib + Navitoclax; first compound 0.003 µM): 0.778
- relative viability (Dabrafenib + Navitoclax; first compound 0.009487 µM): 1.01
- relative viability (Dabrafenib + Navitoclax; first compound 0.03 µM): 0.961
- relative viability (Dabrafenib + Navitoclax; first compound 0.09487 µM): 0.894
- relative viability (Dabrafenib + Navitoclax; first compound 0.3 µM): 1.11
- relative viability (Dabrafenib + Phenformin; first compound 0.003 µM): 0.147
- relative viability (Dabrafenib + Phenformin; first compound 0.009487 µM): 0.227
- relative viability (Dabrafenib + Phenformin; first compound 0.03 µM): 0.187
- relative viability (Dabrafenib + Phenformin; first compound 0.09487 µM): 0.196
- relative viability (Dabrafenib + Phenformin; first compound 0.3 µM): 0.236

Cell Line: EMC-BAC-2
- relative viability (VX-702 + Luminespib; first compound 0.02 µM): 1.13
- relative viability (VX-702 + Luminespib; first compound 0.2 µM): 1.13
- relative viability (VX-702 + Luminespib; first compound 0.6325 µM): 1.13
- relative viability (VX-702 + Luminespib; first compound 2 µM): 1.23
- relative viability (VX-702 + Alpelisib; first compound 0.02 µM): 0.766
- relative viability (VX-702 + Alpelisib; first compound 0.2 µM): 0.671
- relative viability (VX-702 + Alpelisib; first compound 0.6325 µM): 0.723
- relative viability (VX-702 + Alpelisib; first compound 2 µM): 0.852
- relative viability (Dabrafenib + Navitoclax; first compound 0.003 µM): 1.27
- relative viability (Dabrafenib + Navitoclax; first compound 0.009487 µM): 1.19
- relative viability (Dabrafenib + Navitoclax; first compound 0.03 µM): 0.998
- relative viability (Dabrafenib + Navitoclax; first compound 0.09487 µM): 1.1
- relative viability (Dabrafenib + Navitoclax; first compound 0.3 µM): 1.19
- relative viability (Dabrafenib + Phenformin; first compound 0.003 µM): 0.518
- relative viability (Dabrafenib + Phenformin; first compound 0.009487 µM): 0.563
- relative viability (Dabrafenib + Phenformin; first compound 0.03 µM): 0.364
- relative viability (Dabrafenib + Phenformin; first compound 0.09487 µM): 0.418
- relative viability (Dabrafenib + Phenformin; first compound 0.3 µM): 0.548

Cell Line: EPLC-272H
- relative viability (VX-702 + Luminespib; first compound 0.02 µM): 0.344
- relative viability (VX-702 + Luminespib; first compound 0.2 µM): 0.694
- relative viability (VX-702 + Luminespib; first compound 0.6325 µM): 0.352
- relative viability (VX-702 + Luminespib; first compound 2 µM): 0.272
- relative viability (VX-702 + Alpelisib; first compound 0.02 µM): 0.982
- relative viability (VX-702 + Alpelisib; first compound 0.2 µM): 0.752
- relative viability (VX-702 + Alpelisib; first compound 0.6325 µM): 0.965
- relative viability (VX-702 + Alpelisib; first compound 2 µM): 1.01
- relative viability (Dabrafenib + Navitoclax; first compound 0.009487 µM): 1.39
- relative viability (Dabrafenib + Navitoclax; first compound 0.03 µM): 0.997
- relative viability (Dabrafenib + Navitoclax; first compound 0.09487 µM): 0.875
- relative viability (Dabrafenib + Navitoclax; first compound 0.3 µM): 0.824
- relative viability (Dabrafenib + Phenformin; first compound 0.003 µM): 0.211
- relative viability (Dabrafenib + Phenformin; first compound 0.009487 µM): 0.331
- relative viability (Dabrafenib + Phenformin; first compound 0.03 µM): 0.406
- relative viability (Dabrafenib + Phenformin; first compound 0.09487 µM): 0.267
- relative viability (Dabrafenib + Phenformin; first compound 0.3 µM): 0.332

Cell Line: H3255
- relative viability (VX-702 + Luminespib; first compound 0.02 µM): 1.09
- relative viability (VX-702 + Luminespib; first compound 0.2 µM): 0.803
- relative viability (VX-702 + Luminespib; first compound 0.6325 µM): 0.957
- relative viability (VX-702 + Luminespib; first compound 2 µM): 1.11
- relative viability (VX-702 + Alpelisib; first compound 0.02 µM): 0.727
- relative viability (VX-702 + Alpelisib; first compound 0.2 µM): 0.78
- relative viability (VX-702 + Alpelisib; first compound 0.6325 µM): 0.723
- relative viability (VX-702 + Alpelisib; first compound 2 µM): 0.907
- relative viability (Dabrafenib + Navitoclax; first compound 0.003 µM): 0.375
- relative viability (Dabrafenib + Navitoclax; first compound 0.009487 µM): 0.669
- relative viability (Dabrafenib + Navitoclax; first compound 0.03 µM): 0.548
- relative viability (Dabrafenib + Navitoclax; first compound 0.09487 µM): 0.441
- relative viability (Dabrafenib + Navitoclax; first compound 0.3 µM): 0.566
- relative viability (Dabrafenib + Phenformin; first compound 0.003 µM): 0.345
- relative viability (Dabrafenib + Phenformin; first compound 0.009487 µM): 0.444
- relative viability (Dabrafenib + Phenformin; first compound 0.03 µM): 0.338
- relative viability (Dabrafenib + Phenformin; first compound 0.09487 µM): 0.391
- relative viability (Dabrafenib + Phenformin; first compound 0.3 µM): 0.383

Cell Line: HARA
- relative viability (VX-702 + Luminespib; first compound 0.02 µM): 0.743
- relative viability (VX-702 + Luminespib; first compound 0.2 µM): 0.75
- relative viability (VX-702 + Luminespib; first compound 0.6325 µM): 0.58
- relative viability (VX-702 + Luminespib; first compound 2 µM): 0.947
- relative viability (VX-702 + Alpelisib; first compound 0.02 µM): 0.789
- relative viability (VX-702 + Alpelisib; first compound 0.2 µM): 0.832
- relative viability (VX-702 + Alpelisib; first compound 0.6325 µM): 0.836
- relative viability (VX-702 + Alpelisib; first compound 2 µM): 0.921
- relative viability (Dabrafenib + Navitoclax; first compound 0.003 µM): 1.14
- relative viability (Dabrafenib + Navitoclax; first compound 0.009487 µM): 1.15
- relative viability (Dabrafenib + Navitoclax; first compound 0.03 µM): 1.07
- relative viability (Dabrafenib + Navitoclax; first compound 0.09487 µM): 1.07
- relative viability (Dabrafenib + Navitoclax; first compound 0.3 µM): 1.12
- relative viability (Dabrafenib + Phenformin; first compound 0.003 µM): 0.448
- relative viability (Dabrafenib + Phenformin; first compound 0.009487 µM): 0.46
- relative viability (Dabrafenib + Phenformin; first compound 0.09487 µM): 0.364
- relative viability (Dabrafenib + Phenformin; first compound 0.3 µM): 0.511

Cell Line: HCC-15
- relative viability (VX-702 + Luminespib; first compound 0.02 µM): 0.26
- relative viability (VX-702 + Luminespib; first compound 0.2 µM): 0.295
- relative viability (VX-702 + Luminespib; first compound 0.6325 µM): 0.288
- relative viability (VX-702 + Luminespib; first compound 2 µM): 0.349
- relative viability (VX-702 + Alpelisib; first compound 0.02 µM): 0.844
- relative viability (VX-702 + Alpelisib; first compound 0.2 µM): 0.777
- relative viability (VX-702 + Alpelisib; first compound 0.6325 µM): 0.848
- relative viability (VX-702 + Alpelisib; first compound 2 µM): 0.956
- relative viability (Dabrafenib + Navitoclax; first compound 0.003 µM): 0.728
- relative viability (Dabrafenib + Navitoclax; first compound 0.009487 µM): 0.787
- relative viability (Dabrafenib + Navitoclax; first compound 0.03 µM): 0.734
- relative viability (Dabrafenib + Navitoclax; first compound 0.09487 µM): 0.694
- relative viability (Dabrafenib + Navitoclax; first compound 0.3 µM): 0.833
- relative viability (Dabrafenib + Phenformin; first compound 0.003 µM): 0.461
- relative viability (Dabrafenib + Phenformin; first compound 0.009487 µM): 0.461
- relative viability (Dabrafenib + Phenformin; first compound 0.03 µM): 0.528
- relative viability (Dabrafenib + Phenformin; first compound 0.09487 µM): 0.401
- relative viability (Dabrafenib + Phenformin; first compound 0.3 µM): 0.382

Cell Line: HCC-44
- relative viability (VX-702 + Luminespib; first compound 0.02 µM): 0.84
- relative viability (VX-702 + Luminespib; first compound 0.2 µM): 0.983
- relative viability (VX-702 + Luminespib; first compound 0.6325 µM): 0.909
- relative viability (VX-702 + Luminespib; first compound 2 µM): 1.48
- relative viability (VX-702 + Alpelisib; first compound 0.02 µM): 0.861
- relative viability (VX-702 + Alpelisib; first compound 0.2 µM): 0.866
- relative viability (VX-702 + Alpelisib; first compound 0.6325 µM): 0.588
- relative viability (VX-702 + Alpelisib; first compound 2 µM): 0.8
- relative viability (Dabrafenib + Navitoclax; first compound 0.003 µM): 0.939
- relative viability (Dabrafenib + Navitoclax; first compound 0.009487 µM): 1.04
- relative viability (Dabrafenib + Navitoclax; first compound 0.03 µM): 0.939
- relative viability (Dabrafenib + Navitoclax; first compound 0.09487 µM): 0.843
- relative viability (Dabrafenib + Navitoclax; first compound 0.3 µM): 1.04
- relative viability (Dabrafenib + Phenformin; first compound 0.009487 µM): 0.173
- relative viability (Dabrafenib + Phenformin; first compound 0.03 µM): 0.183
- relative viability (Dabrafenib + Phenformin; first compound 0.09487 µM): 0.227
- relative viability (Dabrafenib + Phenformin; first compound 0.3 µM): 0.235

Cell Line: HCC-78
- relative viability (VX-702 + Alpelisib; first compound 0.02 µM): 0.303
- relative viability (VX-702 + Alpelisib; first compound 0.2 µM): 0.33
- relative viability (VX-702 + Alpelisib; first compound 0.6325 µM): 0.287
- relative viability (VX-702 + Alpelisib; first compound 2 µM): 0.32
- relative viability (Dabrafenib + Navitoclax; first compound 0.009487 µM): 0.908
- relative viability (Dabrafenib + Navitoclax; first compound 0.03 µM): 0.702
- relative viability (Dabrafenib + Navitoclax; first compound 0.09487 µM): 0.795
- relative viability (Dabrafenib + Navitoclax; first compound 0.3 µM): 0.869
- relative viability (Dabrafenib + Phenformin; first compound 0.009487 µM): 0.866
- relative viability (Dabrafenib + Phenformin; first compound 0.03 µM): 0.704
- relative viability (Dabrafenib + Phenformin; first compound 0.09487 µM): 0.614
- relative viability (Dabrafenib + Phenformin; first compound 0.3 µM): 0.667

Cell Line: HCC-366
- relative viability (VX-702 + Alpelisib; first compound 0.02 µM): 0.37
- relative viability (VX-702 + Alpelisib; first compound 0.2 µM): 0.369
- relative viability (VX-702 + Alpelisib; first compound 0.6325 µM): 0.296
- relative viability (VX-702 + Alpelisib; first compound 2 µM): 0.463
- relative viability (Dabrafenib + Navitoclax; first compound 0.009487 µM): 1.02
- relative viability (Dabrafenib + Navitoclax; first compound 0.03 µM): 0.963
- relative viability (Dabrafenib + Navitoclax; first compound 0.09487 µM): 1.05
- relative viability (Dabrafenib + Navitoclax; first compound 0.3 µM): 1.11
- relative viability (Dabrafenib + Phenformin; first compound 0.003 µM): 0.325
- relative viability (Dabrafenib + Phenformin; first compound 0.009487 µM): 0.672
- relative viability (Dabrafenib + Phenformin; first compound 0.03 µM): 0.539
- relative viability (Dabrafenib + Phenformin; first compound 0.09487 µM): 0.483
- relative viability (Dabrafenib + Phenformin; first compound 0.3 µM): 0.612
